Columns and labels:
[1] = dissolution of crystalline form I; type: physicochemical
Source text: Obtaining this crystalline form has the advantage of allowing especially rapid and efficient filtration and also the preparation of pharmaceutical formulations having a consistent and reproducible composition, which is especially advantageous when those formulations are intended for oral administration.

[2] = storage stability of crystalline form I; type: physicochemical; conditions: periods of up to 18 months
Source text: The form thereby obtained is sufficiently stable to allow its storage for an extended period without particular conditions for temperature, light, humidity or oxygen levels.

central nervous system = assay: pharmacological study
Source text: Neurodegenerative diseases more especially targeted are Alzheimer's disease, Parkinson's disease, Pick's disease, Korsakoff's disease, Lewy body dementias, frontal and subcortical dementias, frontotemporal dementias and vascular dementias.

Row | SMILES | dissolution properties [1] | stability on storage ([2]; at 25° C. with a humidity level of 60% in a double bag of polyethylene) | stability on storage ([2]; at 30° C. with a humidity level of 65% in a double bag of polyethylene) | stability on storage ([2]; at 30° C. with a humidity level of 85% in a double bag of polyethylene) | activity on the central nervous system (central nervous system)
1 | Cl.NC(=O)c1ccc(OCCCN2C[C@H]3CCC[C@H]3C2)cc1 [4-{3-[cis-Hexahydrocyclopenta[c]pyrrol-2(1H)-yl]propoxy}benzamide hydrochloride] | noteworthy properties of immediate dissolution | very stable | very stable | very stable | substantial activity
2 | NC(=O)c1ccc(OCCCN2C[C@H]3CCC[C@H]3C2)cc1 [form I of its free base, 4-{3-[cis-Hexahydrocyclopenta[c]pyrrol-2(1H)-yl]propoxy}benzamide] |  |  |  |  | substantial activity

— patent US8664408B2, “Synthesis process, and crystalline form of 4-{3-[cis-hexahydrocyclopenta[c]pyrrol-2(1H)-yl]proxy}benzamide hydrochloride and pharmaceutical compositions containing it” (Les Laboratoires Servier, priority 2011, dated 2014)
